According to PubChem BioAssay AID330 (DTP/NCI, 2004):
Values joined by “and” are separate entries in the source; they are usually repeats but may differ in a detail not shown here. Equal values may be shown once. Toxic doses and inconclusive results are not listed.

Tested on: P388 leukemia ip, CD2F1 mice, survival T/C
Experiment: NCI In Vivo Anticancer Drug Screen. Data for tumor model P388 Leukemia (intraperitoneal) in CD2F1 (CDF1) mice
Details: endpoint: median survival time, higher = longer survival
Procedure, shortened: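 Mice carrying the transplanted tumor received test compound or vehicle. Survival was recorded in each group, and the value is the treated-group measurement divided by that of the vehicle-treated control group.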

[1] = dose: 50.0 mg/kg/injection, schedule: Q01DX005 (ip), vehicle: saline with Tween-80
[2] = dose: 100.0 mg/kg/injection, schedule: Q01DX005 (ip), vehicle: saline with Tween-80
[3] = dose: 200.0 mg/kg/injection, schedule: Q01DX005 (ip), vehicle: saline with Tween-80
[4] = dose: 60.0 mg/kg/injection, schedule: Q01DX005 (ip), vehicle: saline
[5] = dose: 120.0 mg/kg/injection, schedule: Q01DX005 (ip), vehicle: saline
[6] = dose: 240.0 mg/kg/injection, schedule: Q01DX005 (ip), vehicle: saline
[7] = dose: 50.0 mg/kg/injection, schedule: Q01DX009 (ip), vehicle: Klucel (hydroxypropylcellulose) (HPC)
[8] = dose: 100.0 mg/kg/injection, schedule: Q01DX009 (ip), vehicle: Klucel (hydroxypropylcellulose) (HPC)
[9] = dose: 50.0 mg/kg/injection, schedule: Q01DX009 (ip), vehicle: saline with Tween-80
[10] = dose: 100.0 mg/kg/injection, schedule: Q01DX009 (ip), vehicle: saline with Tween-80
[11] = dose: 60.0 mg/kg/injection, schedule: Q01DX005 (ip), vehicle: saline with Tween-80
[12] = dose: 120.0 mg/kg/injection, schedule: Q01DX005 (ip), vehicle: saline with Tween-80
[13] = dose: 240.0 mg/kg/injection, schedule: Q01DX005 (ip), vehicle: saline with Tween-80
[14] = dose: 200.0 mg/kg/injection, schedule: Q01DX009 (ip), vehicle: saline with Tween-80
[15] = dose: 50.0 mg/kg/injection, schedule: Q01DX009 (ip), vehicle: saline
[16] = dose: 100.0 mg/kg/injection, schedule: Q01DX009 (ip), vehicle: saline
[17] = dose: 200.0 mg/kg/injection, schedule: Q01DX009 (ip), vehicle: saline

For `COc1ccc2c3c([nH]c2c1[N+](=O)[O-])C(C)N(S(=O)(=O)c1ccccc1)CC3` (stereo not drawn), the T/C (dose: 8.5 mg/kg/injection, schedule: Q01DX005 (ip), vehicle: Klucel (hydroxypropylcellulose) (HPC)) was 95 % of control, the T/C (dose: 17.0 mg/kg/injection, schedule: Q01DX005 (ip), vehicle: Klucel (hydroxypropylcellulose) (HPC)) was 97 % of control and the T/C (dose: 34.0 mg/kg/injection, schedule: Q01DX005 (ip), vehicle: Klucel (hydroxypropylcellulose) (HPC)) was 104 % of control. For the same molecule, the T/C (dose: 68.0 mg/kg/injection, schedule: Q01DX005 (ip), vehicle: Klucel (hydroxypropylcellulose) (HPC)) was 95 % of control and the T/C (dose: 136.0 mg/kg/injection, schedule: Q01DX005 (ip), vehicle: Klucel (hydroxypropylcellulose) (HPC)) was 89 % of control.

In the case of `NC(N)=NC(N)=Nc1ccc(-c2ccc(N=C(N)N=C(N)N)cc2)cc1`, the T/C (dose: 3.13 mg/kg/injection, schedule: Q01DX009 (ip), vehicle: saline with Tween-80) is reported as 108 % of control and the T/C (dose: 6.25 mg/kg/injection, schedule: Q01DX009 (ip), vehicle: saline with Tween-80) is reported as 106 % of control.

With `COc1cccc(N=C(C)C2C(=O)c3ccccc3C2=O)c1` the T/C [1] was 109 % of control, the T/C [2] was 100 % of control and the T/C [3] was 95 % of control.

For `CSCC[C@H](NC(C)=O)B1OCCO1`, the T/C [4] was 100 % of control, the T/C [5] was 104 % of control and the T/C [6] was 109 % of control.

With `C#CC(CC)(CC)N1CC(OC(=O)NCC=C)C1` the T/C [7] was 100 % of control, the T/C [8] was 97 % of control and the T/C (dose: 200.0 mg/kg/injection, schedule: Q01DX009 (ip), vehicle: Klucel (hydroxypropylcellulose) (HPC)) was 95 % of control.

`C=CC(=NC(C)(C)C)Nc1ccc(OC)cc1` was tested, and the T/C [9] was 112 % of control and the T/C [10] was 112 % of control.

For `Oc1cc2c(cc1C(c1ccc(Cl)cc1)N1CCCCC1)OCO2` (stereo not drawn), the T/C [11] was 117 % of control, the T/C [12] was 118 % of control and the T/C [13] was 119 % of control.

For `COC(=N)C1=CC(C)(C)N(O)C1(C)C`, the T/C (dose: 100.0 mg/kg/injection, schedule: Q01DX001 (ip), vehicle: saline) was 96 % of control, the T/C (dose: 200.0 mg/kg/injection, schedule: Q01DX001 (ip), vehicle: saline) was 102 % of control and the T/C (dose: 400.0 mg/kg/injection, schedule: Q01DX001 (ip), vehicle: saline) was 98 % of control.

For `NC(=O)N/N=C1/CC(=O)N(c2ccccc2)C1c1ccccc1` (stereo not drawn), the T/C [11] was 93 % of control, the T/C [12] was 91 % of control and the T/C [13] was 92 % of control.

`Nc1ccc(C(=O)O)c(C(=O)O)c1` was tested, and the T/C [9] was 100 % of control, the T/C (dose: 50.0 mg/kg/injection, schedule: Q04DX003 (ip), vehicle: saline with Tween-80) was 91 % of control and the T/C [10] was 104 % of control. For the same molecule, the T/C (dose: 100.0 mg/kg/injection, schedule: Q04DX003 (ip), vehicle: saline with Tween-80) was 91 % of control, the T/C [14] was 100 % of control and the T/C (dose: 200.0 mg/kg/injection, schedule: Q04DX003 (ip), vehicle: saline with Tween-80) was 91 % of control.

With `COc1cccc2c1C(=O)c1c(O)c3c(c(O)c1C2=O)CC(O)(C(C)=O)CC3OC1CC(N=CN(C)C)C(O)C(C)O1` (stereo not drawn) the T/C (dose: 3.13 mg/kg/injection, schedule: Q04DX003 (ip), vehicle: distilled water + Tween-80) was 103 % of control, the T/C (dose: 6.25 mg/kg/injection, schedule: Q04DX003 (ip), vehicle: distilled water + Tween-80) was 110 % of control and the T/C (dose: 12.5 mg/kg/injection, schedule: Q04DX003 (ip), vehicle: distilled water + Tween-80) was 99 % of control and 119 % of control. The T/C (dose: 50.0 mg/kg/injection, schedule: Q04DX003 (ip), vehicle: distilled water + Tween-80) was 123 % of control.

For `CC(=O)Nc1c2ccccc2nc2ccccc12`, the T/C [1] was 95 % of control, the T/C [2] was 91 % of control and the T/C [3] was 94 % of control.

`C[CH2][Pb]([CH2]C)([CH2]C)[O]C(=O)CBr` was tested, and the T/C (dose: 2.0 mg/kg/injection, schedule: Q01DX009 (ip), vehicle: saline) was 111 % of control, the T/C (dose: 3.0 mg/kg/injection, schedule: Q01DX009 (ip), vehicle: saline) was 117 % of control and the T/C (dose: 4.5 mg/kg/injection, schedule: Q01DX009 (ip), vehicle: saline) was 119 % of control.

`CCCCSc1nc2ccc(N=Cc3ccccc3O)cc2s1` was tested, and the T/C [7] was 103 % of control and the T/C [8] was 99 % of control.

In the case of `CCCCCCCCCCCCCCCCCC(=O)[Se][Se]C(=O)CCCCCCCCCCCCCCCCC`, the T/C (dose: 50.0 mg/kg/injection, schedule: Q01DX009 (ip), vehicle: saline + Tween-80 + alcohol) is reported as 99 % of control, the T/C (dose: 100.0 mg/kg/injection, schedule: Q01DX009 (ip), vehicle: saline + Tween-80 + alcohol) is reported as 104 % of control and the T/C (dose: 200.0 mg/kg/injection, schedule: Q01DX009 (ip), vehicle: saline + Tween-80 + alcohol) is reported as 104 % of control.

`O=C(/C=C/C(=O)Nc1ccc(F)cc1F)Nc1ccc(F)cc1F` was tested, and the T/C [11] was 94 % of control and 95 % of control, the T/C [12] was 98 % of control and the T/C [13] was 104 % of control and 97 % of control.

In the case of `CCOP(=O)(OCC)C1OCCCO1`, the T/C [15] is reported as 102 % of control, the T/C [16] is reported as 98 % of control and the T/C [17] is reported as 106 % of control.

`Cc1nn(C(=O)c2ccncc2)c(C)c1N=Nc1cccc([N+](=O)[O-])c1` was tested, and the T/C (dose: 100.0 mg/kg/injection, schedule: Q04DX003 (ip), vehicle: saline) was 89 % of control and the T/C (dose: 200.0 mg/kg/injection, schedule: Q04DX003 (ip), vehicle: saline) was 93 % of control.

For `COc1cccc2c1C(=O)c1c(O)c3c(c(O)c1C2=O)C[C@@](O)(C(=O)CO)C[C@@H]3OC1CC(N2CCOCC2C#N)C(O)C(C)O1` (stereo partly drawn), the T/C (dose: 9.38 micrograms/kg/injection, schedule: Q04DX003 (ip), vehicle: saline with Tween-80) was 191 % of control and 198 % of control, the T/C (dose: 9.38 micrograms/kg/injection, schedule: Q04DX003 (ip), vehicle: water) was 105 % of control and the T/C (dose: 15.0 micrograms/kg/injection, schedule: Q04DX003 (iv), vehicle: saline + alcohol) was 180 % of control. The T/C (dose: 18.75 micrograms/kg/injection, schedule: Q04DX003 (ip), vehicle: saline with Tween-80) was 252 % of control and 260 % of control, the T/C (dose: 18.75 micrograms/kg/injection, schedule: Q04DX003 (ip), vehicle: water) was 107 % of control and the T/C (dose: 22.0 micrograms/kg/injection, schedule: Q04DX003 (iv), vehicle: saline + alcohol) was 180 % of control. The T/C (dose: 37.5 micrograms/kg/injection, schedule: Q04DX003 (ip), vehicle: saline with Tween-80) was 110 % of control, the T/C (dose: 75.0 micrograms/kg/injection, schedule: Q04DX003 (ip), vehicle: water) was 178 % of control and 196 % of control and the T/C (dose: 150.0 micrograms/kg/injection, schedule: Q04DX003 (ip), vehicle: water) was 111 % of control. For the same molecule, the T/C (dose: 300.0 micrograms/kg/injection, schedule: Q04DX003 (ip), vehicle: water) was 89 % of control.

`O=C(c1ccccc1)c1ccccc1NC(=O)C(F)(F)F` was tested, and the T/C [9] was 100 % of control, the T/C [10] was 95 % of control and the T/C [14] was 96 % of control.

With `COc1ccccc1NC(CCN1CCCCC1)=NC(C)(C)C` the T/C [9] was 111 % of control, the T/C [10] was 106 % of control and the T/C [14] was 104 % of control.

In the case of `O=C1CCC(C(=O)N(C(=O)NC2CCCCC2)C2CCCCC2)Cc2ccccc21` (stereo not drawn), the T/C (dose: 60.0 mg/kg/injection, schedule: Q01DX005 (ip), vehicle: Klucel (hydroxypropylcellulose) (HPC)) is reported as 98 % of control, the T/C (dose: 120.0 mg/kg/injection, schedule: Q01DX005 (ip), vehicle: Klucel (hydroxypropylcellulose) (HPC)) is reported as 92 % of control and the T/C (dose: 240.0 mg/kg/injection, schedule: Q01DX005 (ip), vehicle: Klucel (hydroxypropylcellulose) (HPC)) is reported as 90 % of control.

With `CCCCCc1onc(-c2noc(CCCCC)c2C)c1C` the T/C [4] was 100 % of control, the T/C [5] was 99 % of control and the T/C [6] was 104 % of control.

With `CSc1nc2n(C)cc(C)cc-2c(=O)n1` the T/C (dose: 25.0 mg/kg/injection, schedule: Q01DX001 (ip), vehicle: saline with Tween-80) was 97 % of control, the T/C (dose: 50.0 mg/kg/injection, schedule: Q01DX001 (ip), vehicle: saline with Tween-80) was 97 % of control and the T/C (dose: 100.0 mg/kg/injection, schedule: Q01DX001 (ip), vehicle: saline with Tween-80) was 99 % of control.

With `Cc1noc(N(C)C)c1C` the T/C [15] was 102 % of control, the T/C [16] was 100 % of control and the T/C [17] was 108 % of control.

`N=C(N)c1ccc(N=NNc2ccc(C(=N)N)cc2)cc1` was tested, and the T/C (dose: 12.5 mg/kg/injection, schedule: Q01DX005 (ip), vehicle: Klucel + Tween-80) was 94 % of control, the T/C (dose: 12.5 mg/kg/injection, schedule: Q01DX005 (ip), vehicle: saline with Tween-80) was 96 % of control and the T/C (dose: 25.0 mg/kg/injection, schedule: Q01DX005 (ip), vehicle: Klucel + Tween-80) was 98 % of control. The T/C (dose: 50.0 mg/kg/injection, schedule: Q01DX005 (ip), vehicle: Klucel + Tween-80) was 100 % of control.
